In the RepoRT retention time repository one finds LC retention time data, which are given here for 37 molecules.

The structures appear in SMILES notation.

The nature of this data set: HILIC, Waters ACQUITY UPLC BEH HILIC, 150 × 2.1 mm, 1.7 µm, 40 °C, 0.6 mL/min, estimated dead time 0.55 min; A: water + 0.1% formic acid + 20 mM ammonium formate, pH 3.5; B: acetonitrile + 0.1% formic acid, pH 3; gradient (min/%B) 0/95 0.1/95 4.6/80 5.5/50 7.0/50 7.1/95 7.2/95 7.3/95 7.4/95 7.5/95 7.6/95 7.7/95 7.8/95 12.50/95 12.65/95. The note with it: stereoisomer not certain.
For the molecule `O=c1[nH]cnc2nc[nH]c12` [Hypoxanthine], the LC retention time is 1.59 min.

In the case of `NCCS(=O)(=O)O` [Taurine], the LC retention time was 2.61 min.

With `C[N+](C)(C)[O-]` [Trimethylamine N-oxide], the LC retention time was 4.18 min.

In the case of `Nc1nc2ncc(C(O)C(O)CO)nc2c(=O)[nH]1` (configuration not stated) [Neopterin], the LC retention time was 2.32 min.

`CC(C)(CO)C(O)C(=O)NCCC(=O)O` (configuration not stated) [Pantothenic acid]: the LC retention time was 1.13 min.

In the case of `NCCc1ccccc1` [Phenylethylamine], the LC retention time was 2.91 min.

As for `C[S+](CCC(N)C(=O)O)CC1OC(n2cnc3c(N)ncnc32)C(O)C1O` (configuration not stated) [S-Adenosylmethionine], the LC retention time was 6.25 min.

On to `CN1CCCC1C(=O)O` (configuration not stated) [N-methylproline], for which the LC retention time was 4.48 min.

`O=C(O)CCc1cnc[nH]1` [Imidazolepropionic acid]: the LC retention time was 3.76 min.

As for `O=C1CCC(c2cccnc2)N1` (configuration not stated) [Norcotinine], the LC retention time was 1.6 min.

As for `NC(CCCCn1c(C=O)ccc1CO)C(=O)O` (configuration not stated) [Pyralline], the LC retention time is 4.28 min.

With `C=CC1=C(C)C(C=c2[nH]c(=Cc3[nH]c(C=C4NC(=O)C(C)=C4C=C)c(C)c3CCC(=O)O)c(CCC(=O)O)c2C)=NC1=O` [Biliverdin], the LC retention time was 0.732 min.

Regarding `C[N+](C)(C)CC(CC(=O)[O-])OC(=O)CCCC(=O)O` (configuration not stated) [Glutarylcarnitine CAR(5:0-DC)], the LC retention time was 5.1 min.

For `CC=C(C)C(=O)OC(CC(=O)[O-])C[N+](C)(C)C` (configuration not stated) [Tiglylcarnitine CAR(5:1)], the LC retention time was 4.54 min.

As for `Cn1cnc2c(ncn2C2OC(CO)C(O)C2O)c1=N` (configuration not stated) [1-Methyladenosine], the LC retention time is 4.1 min.

Take `OCC1OC(OC2(CO)OC(CO)C(O)C2O)C(O)C(O)C1O` (configuration not stated) [Sucrose]: the LC retention time was 2.27 min.

Consider `CC12CCC(=O)C=C1CCC1C2C(O)CC2(C)C1CCC2(O)C(=O)CO` (configuration not stated) [Cortisol], for which the LC retention time is 0.71 min.

With `C[N+](C)(C)CCCC(=O)[O-]` [4-Trimethylammoniobutanoic acid (deoxycarnitine)], the LC retention time is 4.91 min.

Take `CCC(=O)OC(CC(=O)[O-])C[N+](C)(C)C` (configuration not stated) [Propionylcarnitine CAR(3:0)]: the LC retention time was 4.82 min.

Consider `CN1CCCC1c1cccnc1` (configuration not stated) [Nicotine], for which the LC retention time was 4.14 min.

Regarding `C=CC1CN2CCC1CC2C(O)c1ccnc2ccc(OC)cc12` (configuration not stated) [Quinine], the LC retention time is 3.03 min.

Consider `CN(C)C(N)=NCCC[C@H](N)C(=O)O` [Asymmetric Dimethylarginine], for which the LC retention time is 5.91 min.

For `CC(CCC(=O)NCCS(=O)(=O)O)C1CCC2C3C(O)CC4CC(O)CCC4(C)C3CC(O)C12C` (configuration not stated) [Taurocholic Acid], the LC retention time is 2.47 min.

For the molecule `NCCC(=O)NC(Cc1cnc[nH]1)C(=O)O` (configuration not stated) [Carnosine], the LC retention time was 6.01 min.

As to `Cn1cnc(CC(N)C(=O)O)c1` (configuration not stated) [1-Methylhistidine], the LC retention time was 6.35 min.

For the molecule `CCCCCCCCCCCC(=O)OC(CC(=O)[O-])C[N+](C)(C)C` (configuration not stated) [Lauroylcarnitine CAR(12:0)], the LC retention time is 3.97 min.

Consider `CCCCCCCCCCCCCCCC(=O)OC(CC(=O)[O-])C[N+](C)(C)C` (configuration not stated) [Palmitoylcarnitine CAR(C16:0)], for which the LC retention time was 3.78 min.

For the molecule `NC(=O)c1cccnc1` [Niacinamide], the LC retention time was 1.07 min.

For the molecule `c1cncc(C2CCCN2)c1` (configuration not stated) [Nornicotine], the LC retention time was 4.22 min.

As for `CC(=O)CC(c1ccccc1)c1c(O)c2ccccc2oc1=O` (configuration not stated) [Warfarin], the LC retention time was 0.673 min.

Take `Cn1cncc1CC(N)C(=O)O` (configuration not stated) [3-Methylhistidine]: the LC retention time is 6.09 min.

On to `CCCCCCCCCCCCCCCCCC(=O)OC(CC(=O)[O-])C[N+](C)(C)C` (configuration not stated) [Stearoylcarnitine CAR(18:0)], for which the LC retention time is 3.74 min.

Consider `C[N+](C)(C)CC(O)CC(=O)[O-]` (configuration not stated) [Carnitine], for which the LC retention time was 5.32 min.

Regarding `CC(=O)C[N+](C)(C)C` [Trimethylaminoacetone], the LC retention time was 3.51 min.

In the case of `CCCCCCCCCCCCCC(=O)OC(CC(=O)[O-])C[N+](C)(C)C` (configuration not stated) [Tetradecanoylcarnitine CAR(14:0)], the LC retention time is 3.78 min.

As to `C[N+](C)(C)C(Cc1c[nH]c2ccccc12)C(=O)[O-]` (configuration not stated) [Tryptophan betaine], the LC retention time is 3.91 min.

On to `CN1CC(=O)NC1=N` [Creatinine], for which the LC retention time is 2.51 min.
